This passage reports inhibition and Ki results from patent US20050148631A1, “Amino heterocyclyl inhibitors of 11-beta-hydroxy steroid dehydrogenase type 1” (AGOURON PHARMACEUTICALS, INC., priority 2003, published 2005).

Test [1] addresses T1, 11β-hsd-1 enzyme (Homo sapiens, UniProt P28845). Put plainly: 11β-hsd-1 enzyme assay, percentage of inhibition (3H-cortisone to cortisol, radio-HPLC). The test is classed as biochemical. Particulars: read-out: % inh @ 0.1 uM.
The target in test [2] is T1, 11β-hsd-1 enzyme. Put plainly: 11β-hsd-1 enzyme assay, Kiapp determination (3H-cortisone to cortisol, radio-HPLC). Conditions: read-out: Ki app. Type of test: biochemical.

Like-named read-outs stand apart in the source and are kept apart here.

T1 sequence (P28845 whole entry, species assumed): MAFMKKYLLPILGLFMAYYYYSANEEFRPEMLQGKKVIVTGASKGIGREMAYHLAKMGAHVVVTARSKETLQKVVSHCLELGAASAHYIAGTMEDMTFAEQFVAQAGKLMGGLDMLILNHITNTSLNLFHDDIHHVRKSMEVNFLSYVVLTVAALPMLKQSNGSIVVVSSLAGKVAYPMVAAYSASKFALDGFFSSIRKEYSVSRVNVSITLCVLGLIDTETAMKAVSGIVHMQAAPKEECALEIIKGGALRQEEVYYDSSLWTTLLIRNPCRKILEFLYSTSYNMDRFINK

In the case of `CCOc1cccc(-c2ccc(S(=O)(=O)Nc3cccc(C)n3)c(C)c2)c1` [Example 165], the inhibition at 0.1 µM at 11β-hsd-1 enzyme [1] (0.1 uM) turned out to be 71%. At 11β-hsd-1 enzyme [2], the Ki turned out to be 43 nM.

With `O=S(=O)(Nc1ccc2ccccc2n1)N1CCc2conc2CC1` [Example 315], the inhibition at 0.1 µM at 11β-hsd-1 enzyme [1] (compound at 0.1 uM) was determined as 86.1%. The Ki at 11β-hsd-1 enzyme [2] (apparent Ki, 11β-hsd-1 enzyme) was found to be 25 nM.

For the compound `Cc1cccc(NS(=O)(=O)c2ccc(-c3cc(Cl)cc(Cl)c3)c(C)c2)n1` [Example 222], the inhibition at 0.1 µM at 11β-hsd-1 enzyme [1] (compound at 0.1 uM) stood at 90%. At 11β-hsd-1 enzyme [2] (apparent Ki, 11β-hsd-1 enzyme), the Ki was found to be 10 nM.

For the compound `Cc1cccc(NS(=O)(=O)c2ccc(-c3cc(F)c(F)c(F)c3)cc2C)n1` [Example 184], the inhibition at 0.1 µM at 11β-hsd-1 enzyme [1] (0.1 uM) was found to be 97%. On 11β-hsd-1 enzyme [2], the Ki amounted to 12 nM.

For the compound `Nc1cccc(NS(=O)(=O)c2ccc(-c3ccc(C(F)(F)F)cc3)cc2)n1` [Example 95], on 11β-hsd-1 enzyme [1] (0.1 uM), the inhibition at 0.1 µM turned out to be 100%. Besides, the Ki on 11β-hsd-1 enzyme [2] was 4.4 nM.

On to `COc1ccc(-c2ccc(S(=O)(=O)Nc3cccc(C)n3)cc2)cn1` [Example 256], for which the inhibition at 0.1 µM at 11β-hsd-1 enzyme [1] (compound at 0.1 uM) was found to be 89.3%. The Ki at 11β-hsd-1 enzyme [2] (apparent Ki, 11β-hsd-1 enzyme) came to 34.9 nM.

On to `Cc1cccc(NS(=O)(=O)c2ccc(-c3ccccc3F)cc2C)n1` [Example 186], for which the inhibition at 0.1 µM at 11β-hsd-1 enzyme [1] (0.1 uM) was 95%. Also, at 11β-hsd-1 enzyme [2], the Ki was determined as 9.3 nM.

`O=S(=O)(Nc1ccc2ccccc2n1)c1ccc(-c2ccc(F)cc2)nc1` [Example 291]: on 11β-hsd-1 enzyme [1] (compound at 0.1 uM), the inhibition at 0.1 µM worked out at 92.5%. The Ki on 11β-hsd-1 enzyme [2] (apparent Ki, 11β-hsd-1 enzyme) was 27 nM.

For the compound `CCOc1ccccc1-c1ccc(S(=O)(=O)Nc2cccc(C)n2)cc1C` [Example 232], the inhibition at 0.1 µM at 11β-hsd-1 enzyme [1] (compound at 0.1 uM) was determined as 78%. Also, on 11β-hsd-1 enzyme [2] (apparent Ki, 11β-hsd-1 enzyme), the Ki came out at 660 nM.

For `Cc1cccc(NS(=O)(=O)c2ccc(-c3ccncc3)cc2)n1` [Example 257], the inhibition at 0.1 µM at 11β-hsd-1 enzyme [1] (compound at 0.1 uM) turned out to be 74.7%. For the same compound, the Ki on 11β-hsd-1 enzyme [2] (apparent Ki, 11β-hsd-1 enzyme) was 120 nM.

For `Cc1cccc(NS(=O)(=O)c2ccc(-c3ccc(S(C)(=O)=O)cc3)cc2C)n1` [Example 200], the inhibition at 0.1 µM at 11β-hsd-1 enzyme [1] (compound at 0.1 uM) is 88%. Further, the Ki at 11β-hsd-1 enzyme [2] (apparent Ki, 11β-hsd-1 enzyme) was found to be 21 nM.

For the compound `Cc1cccc(NS(=O)(=O)c2sc(-c3ccc(C#N)cc3)nc2C)n1` [Example 118, 2-(4-Cyano-phenyl)-4-methyl-thiazole-5-sulfonic acid (6-methyl-pyridin-2-yl)-amide], at 11β-hsd-1 enzyme [1] (0.1 uM), the inhibition at 0.1 µM is 100%. Also, the Ki at 11β-hsd-1 enzyme [2] is 2.5 nM.

As to `CCS(=O)(=O)c1ccc(-c2ccc(S(=O)(=O)Nc3cccc(C)n3)c(C)c2)cc1` [Example 203], the inhibition at 0.1 µM on 11β-hsd-1 enzyme [1] (compound at 0.1 uM) came to 86%. Further, the Ki on 11β-hsd-1 enzyme [2] (apparent Ki, 11β-hsd-1 enzyme) is 19 nM.

As for `Nc1cccc(NS(=O)(=O)c2ccc(-c3ccc(F)cc3)cc2)n1` [Example 43], the inhibition at 0.1 µM at 11β-hsd-1 enzyme [1] (0.1 uM) came out at 98%. Moreover, the Ki on 11β-hsd-1 enzyme [2] was 8.1 nM.

Take `Cc1cccc(NS(=O)(=O)N2CCc3ccccc3C2)n1` [Example 300]: the inhibition at 0.1 µM on 11β-hsd-1 enzyme [1] (compound at 0.1 uM) was found to be 88.3%. Besides, on 11β-hsd-1 enzyme [2] (apparent Ki, 11β-hsd-1 enzyme), the Ki worked out at 11 nM.

In the case of `CCOc1ccc(-c2ccc(S(=O)(=O)Nc3cccc(C)n3)c(C)c2)cc1` [Example 192], the inhibition at 0.1 µM on 11β-hsd-1 enzyme [1] (0.1 uM) stood at 81%. For the same compound, the Ki at 11β-hsd-1 enzyme [2] was 15 nM.

With `Cc1cccc(NS(=O)(=O)c2ccc(-c3ccc(F)c(Cl)c3)cc2C)n1` [Example 170], the inhibition at 0.1 µM on 11β-hsd-1 enzyme [1] (0.1 uM) amounted to 93%. In addition, the Ki on 11β-hsd-1 enzyme [2] was 8.1 nM.

As for `Cc1cccc(NS(=O)(=O)c2cc3ccccc3s2)n1` [Example 72], on 11β-hsd-1 enzyme [1] (0.1 uM), the inhibition at 0.1 µM was determined as 74.6%. Moreover, the Ki at 11β-hsd-1 enzyme [2] was 30.9 nM.

In the case of `Cc1cccc(NS(=O)(=O)c2ccc(-c3ccccc3)cc2)n1` [Example 36], at 11β-hsd-1 enzyme [1] (0.1 uM), the inhibition at 0.1 µM was found to be 52%. Also, the Ki on 11β-hsd-1 enzyme [2] turned out to be 48 nM.

As to `Cc1ccc(-c2ccc(S(=O)(=O)Nc3cccc(C)n3)c(C)c2)cc1` [Example 171], at 11β-hsd-1 enzyme [1] (0.1 uM), the inhibition at 0.1 µM came to 93%. Besides, at 11β-hsd-1 enzyme [2], the Ki came to 6.9 nM.

Turning to `Cc1cccc(NS(=O)(=O)c2ccc(-c3ccc(F)cc3)cc2)n1` [Example 128], the inhibition at 0.1 µM on 11β-hsd-1 enzyme [1] (0.1 uM) came out at 86.8%. Besides, at 11β-hsd-1 enzyme [2], the Ki is 19.7 nM.

As for `N#Cc1ccc(C2CCN(S(=O)(=O)Nc3ccc4ccccc4n3)CC2)cc1` [Example 308], the inhibition at 0.1 µM at 11β-hsd-1 enzyme [1] (compound at 0.1 uM) is 95.7%. In addition, the Ki on 11β-hsd-1 enzyme [2] (apparent Ki, 11β-hsd-1 enzyme) is less than 1 nM.

`Cc1cccc(NS(=O)(=O)c2ccc(-c3cccc(F)c3F)c(C)c2)n1` [Example 238]: the inhibition at 0.1 µM on 11β-hsd-1 enzyme [1] (compound at 0.1 uM) worked out at 82%. The Ki on 11β-hsd-1 enzyme [2] (apparent Ki, 11β-hsd-1 enzyme) is 27 nM.
